Test: xn = mol fraction of the nth substance listed

ClC(Cl)C(Cl)Cl + CCCCCC
303.15 K, 101 kPa
Settings	viscosity [mPa·s]
x1 = 0.115	0.316
x1 = 0.2303	0.363
x1 = 0.2991	0.411
x1 = 0.4277	0.516
x1 = 0.5521	0.633
x1 = 0.6234	0.71
x1 = 0.7182	0.83
x1 = 0.8039	0.966
x1 = 0.8856	1.133
x1 = 0.9344	1.256

COCCOCCOC + COC(=O)OC
viscosity [mPa·s], 101.33 kPa
Settings	298.15 K	308.15 K	318.15 K
x1 = 0.0428	0.608	0.536	0.485
x1 = 0.0832	0.626	0.55	0.496
x1 = 0.149	0.66	0.576	0.516
x1 = 0.2102	0.693	0.6	0.536
x1 = 0.2752	0.723	0.626	0.556
x1 = 0.3253	0.752	0.647	0.571
x1 = 0.3937	0.784	0.674	0.592
x1 = 0.4775	0.818	0.701	0.615
x1 = 0.5765	0.855	0.733	0.641
x1 = 0.6623	0.884	0.758	0.661
x1 = 0.7219	0.903	0.774	0.675
x1 = 0.8014	0.93	0.792	0.691
x1 = 0.8649	0.949	0.807	0.702
x1 = 0.8944	0.958	0.813	0.708
x1 = 0.9047	0.961	0.816	0.71
x1 = 0.9232	0.966	0.821	0.713
x1 = 0.9316	0.969	0.823	0.714
x1 = 0.9372	0.97	0.823	0.715
x1 = 0.9528	0.975	0.826	0.718

CC(C)Cc1ccc(C(C)C(=O)O)cc1 (stereo unspecified) + CCCO
viscosity [mPa·s], 100 kPa
Settings	x1 = 0.00242	x1 = 0.00365	x1 = 0.00483	x1 = 0.006021	x1 = 0.007225	x1 = 0.0096	x1 = 0.012
298.15 K	1.95	1.956	1.963	1.971	1.979	1.995	2.014
308.15 K	1.529	1.538	1.548	1.56	1.575	1.605	1.639

Source: the CheMixHub viscosity set
